From US12514856B2, “Pediatric trazodone compositions and method of treatment thereof” (ANGELINI S.p.A., priority 2019, dated 2026)
Several values for one entry are separate records, joined by “and”; a condition that tells them apart may be missing. Equal entries are not always repeated. Where two headings read alike, the source gives them in different places.

Key:
[1] = Toxicological Risk Assessment of excipients in oral drops (MDI vs ADI); design: species or system children; conditions: Maximum Daily Therapeutic Dose up to 0.5 mg/kg/day; for MDI (for 2 years aged children): Trazodone HCl 1.5% oral solution; for MDI (for 6 years aged children): Trazodone HCl 3.0% oral solution
Procedure: The Toxicological Risk Assessment of the formulations was performed to evaluate the safety of the excipients employed in the two oral drops formulations for pediatric use.

[2] = cited from earlier work
[3] = biological target: CYP3A4 (Homo sapiens, UniProt P08684); experiment: CYP3A4-mediated metabolism (retrograde calculation)
[4] = tested on: human liver microsome; experiment: Additional HLM CLint (retrograde calculation); conditions: 30% of hepatic metabolism assigned to undefined pathways
Text: (§1) Derivation of key parameters is described below.

[5] = Physical chemistry of trazodone; format: physicochemical
Text: as §1

[6] = Caco-2 permeability; format: in vitro ADME; conditions: human
Text: as §1

[7] = PBPK modelling (Simcyp Population-Based Simulator); conditions: ER; fitting of concentration-time data following a single oral dose of 300 mg ER trazodone
[8] = Blood binding (E:P ratio, equilibrium dialysis); format: in vitro ADME
Text: as §1

[9] = tested on: children with insomnia affected by NDDs; experiment: Phase II trial in children with insomnia affected by NDDs; format: in vivo, human
Procedure: Three different doses, 0.25/0.4 and 0.5 mg/kg/day were administered at bedtime in fruit juice (in a volume of about 200 mL) in the pediatric population of from 2 to 17 years old.
A multi-centre, randomised, parallel-group, single-blind phase II trial was designed, based on the prediction described in the previous Example 3, to evaluate the pharmacokinetics and PKPD relationship of trazodone after single and repeated oral doses in children from 2 to years of age, suffering from insomnia, affected by neurodevelopmental disorders (NDDs: autism spectrum disorder, intellectual disability or attention deficit hyperactivity disorder). The single-blind phase II trial is still ongoing.
The primary objective of this study is to assess the pharmacokinetics (PK) of trazodone after single and repeated doses in patients aged from 2 to years.
Among the secondary objectives of this study, there are the establishment of the pharmacokinetic-pharmacodynamic (PKPD) relationship of trazodone, as assessed by actigraphy measures, and the definition of the dose rationale in children and adolescents aged from […] taking into account the therapeutic exposure range in adults.
The parent's diary will also be used in the evaluation of the results. This phase II clinical trial is designed to assess the PK and PD of 3 dose levels of trazodone in children with insomnia affected by NDDs. A minimum of 36 patients will be randomly assigned (at least 30 evaluable patients, 10 for each treatment arm; at least 10 evaluable patients aged 2 to years, 10 evaluable patients aged 6 to […], 10 evaluable patients aged 12 to years; at least 3 patients for each age and treatment arm).
Patients are initially assigned to one of the 3 treatment arms. Patients in treatment arms 2 and 3 will receive 0.25 mg/kg/day for 3 days followed by a higher maintenance dose for 7 days: • Treatment arm 1: 0.25 mg/kg/day (on days 1 through 10) • Treatment arm 2: 0.4 mg/kg/day (0.25 mg/kg/day on days 1 through 3 and 0.4 mg/kg/day on days 4 through 10) • Treatment arm 3: 0.5 mg/kg/day (0.25 mg/kg/day on days 1 through 3 and 0.5 mg/kg/day on days 4 through 10).
Patients qualifying for the participation in the study at visit 1 (day 1, randomisation—first dose) have been admitted to the clinic at 2 out of 3 visits, according to a patient-specific PK sampling scheme. Due to the requirement of sparse sampling, each patient will contribute a total of 5 PK samples.
Sleep latency and total sleeping time have been recorded by actigraphy starting from 3 consecutive days prior to visit 1 up to the end of the treatment.
An interim analysis has been performed after completion of 18 patients to assess whether data collected allows the determination of the relevant PK parameters with the appropriate precision. The 18 patients are so distributed according treatment arms: 3 patients in treatment arm 1, 5 patients in treatment arm 2, 10 patients in treatment arm 3.

[10] = alternative value printed beside the first (EMA 2014; FDA 1998 USA; EFSA 2014; JECFA 1973)
[11] = first-listed value/reference (JECFA, SCF)

Sequence of CYP3A4 (P08684 whole entry): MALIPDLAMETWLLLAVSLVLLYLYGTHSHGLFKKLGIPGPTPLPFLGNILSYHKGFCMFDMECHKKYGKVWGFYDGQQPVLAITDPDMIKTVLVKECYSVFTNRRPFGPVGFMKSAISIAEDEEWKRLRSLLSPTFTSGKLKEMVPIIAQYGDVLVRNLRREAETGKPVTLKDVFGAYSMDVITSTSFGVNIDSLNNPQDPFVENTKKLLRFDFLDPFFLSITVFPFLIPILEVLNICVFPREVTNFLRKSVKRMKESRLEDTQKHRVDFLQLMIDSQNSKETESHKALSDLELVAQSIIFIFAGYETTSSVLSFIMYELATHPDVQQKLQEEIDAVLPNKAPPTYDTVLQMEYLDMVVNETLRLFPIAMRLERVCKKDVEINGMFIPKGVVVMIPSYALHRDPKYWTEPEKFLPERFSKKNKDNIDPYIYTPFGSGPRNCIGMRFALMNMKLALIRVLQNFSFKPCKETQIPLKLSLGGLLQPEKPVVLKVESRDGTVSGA

SMILES | MDI (for 2 years aged children) [1] [mg/kg/day] | MDI (for 6 years aged children) [1] [mg/kg/day] | ADI [2, 10] | ADI [2, 11] | also measured
OC[C@H]1O[C@H](O[C@]2(CCl)O[C@H](CCl)[C@@H](O)[C@@H]2O)[C@H](O)[C@@H](O)[C@H]1Cl [Sucralose] | 0.05 | 0.03 | 5 mg/kg/day and 5 (USA) mg/kg/day | 15 (UE) mg/kg/day and 15 mg/kg/day and 15 (UE)^ mg/kg/day | 
OC[C@H]1O[C@@](CO)(O[C@H]2O[C@H](CO)[C@@H](O)[C@H](O)[C@H]2O)[C@@H](O)[C@@H]1O [Sucrose] |  |  |  | GRAS | 
CCCOC(=O)c1cc(O)c(O)c(O)c1 [Propyl gallate] | 0.03 | 0.02 | 0.5 mg/kg/day | 1.4 mg/kg/day | 
CC(O)CO (stereo not shown) [Propylene glycol] | 10.00 | 5.00 | 50 mg/kg/day | 25 mg/kg/day | 
[Na+].[OH-] [Sodium hydroxide] | 0.04 | 0.02 |  | Not limited | 
O=C([O-])CN(CCN(CC(=O)[O-])CC(=O)O)CC(=O)O.[Na+].[Na+] [Disodium edetate] | 0.02 | 0.01 | 2.5 mg/kg/day | 1.9 mg/kg/day and 1.9 (ex- mg/kg/day | 
O=C(O)CC(O)(CC(=O)O)C(=O)O [Citric acid anhydrous] | 0.17 | 0.08 |  |  | 
C/C=C/C=C/C(=O)[O-].[K+] [K-Sorbate] |  |  | 11 mg/kg/day | 3 mg/kg/day | 
O=c1n(CCCN2CCN(c3cccc(Cl)c3)CC2)nc2ccccn12 [trazodone] |  |  |  |  | CLint, CYP3A4 ([3]; Retrograde calculation, 70% of hepatic metabolism assigned to CYP3A4): 0.438 µL/min/pmol; fmCYP3A4 ([3]; estimation of CYP3A4-mediated metabolism): 70%; Additional HLM CLint [4]: 25.7 µL/min/mg; solubility as a function of pH [5]: fully soluble only at acidic pH and precipitates at pH values close to neutrality; pKa ([5]; Monoprotic Base): 6.61; Papp ([6]; Caco-2 cells, read-out: mean Papp): 24.2 ×10⁻⁶ cm/s; ka [7]: ER: 0.07 hr^−1; B/P ([8]; blood to plasma, calculated from measured E:P ratio): 0.68; E:P ratio ([8]; erythrocyte to plasma ratio): of 0.2.; fup ([8]; fraction unbound in plasma, equilibrium dialysis): 0.0354; cumulative total sleep time ([9]; actigraphy, patients showing higher exposure to trazodone): slightly longer sleep time; correlation between secondary PK parameters and relative change from baseline in total sleep time ([9]; interim analysis): correlations were observed; Inter-individual variability in clearance estimates ([9]; pediatric patients vs adult subjects, interim analysis): considerably higher than what has been observed previously in adult subject; dose proportionality of pharmacokinetics ([9]; pediatric patients, 0.25/0.4/0.5 mg/kg/day, interim analysis of 18 patients): dose-proportional; sleep time ([9]; pediatric population with NDD, 0.4 and 0.5 mg/kg/day by drops, preliminary): increase the sleep time; total sleep time ([9]; visit 3, small proportion of patients assigned to 0.4 and 0.5 mg/kg dose, actigraphy): > 9 h
COC(=O)c1ccc(O)cc1 [methyl parahydroxybenzoate] |  |  |  | 10 mg/kg/day | 
COCCc1ccc(OCC(O)CNC(C)C)cc1 (stereo not shown) [metoprolol] |  |  |  |  | Papp ([6]; Caco-2): 28.1 ×10⁻⁶ cm/s
O=C([O-])c1ccccc1.[Na+] [Sodium Benzoate] |  |  |  | 5 mg/kg/day | 
